Data taken from patent US20190016689A1, “NOVEL FLUORINATED QUINAZOLINE DERIVATIVES AS EGFR INHIBITORS” (TRILLIUM THERAPEUTICS INC., priority 2016, published 2019).

Tests used:
[1] = Chemical stability in PBS pH 7.4; format: physicochemical; conditions: 37° C.
Description: For PBS pH7.4: Prepare 100 mM bulk Na2HPO4 solution and 100 mM bulk NaH2PO4 solution. Place Na2HPO4 solution on a stirrer and slowly add NaH2PO4 solution until the pH is nearly 7.4 (±0.05).
The working solutions of test compound and control compound chlorambucil are prepared in DMSO at the concentration of 500 μM.
Place 2 μL of working solution of each sample in order into their proper 96-well rack. Add 198 μL of pre-incubated PBS pH 7.4 or simulated intestinal fluid into each vial of the cap-less Sample plate to achieve a final concentration of […]. The assay is performed in duplicate. Seal using a molded PTFE/Silicone plug. Then transfer the Sample plate to the Eppendorf Thermomixer Comfort plate shaker and shake at 37° C. at 1100 RPM. Take one of the glass vials at designated time points including 0, 30, 60, 120 and 240 min. For each time point, the initiation of the reaction is staggered so all time points are terminated with 1000 μL of cold quench solution (acetonitrile containing internal standards (IS, 200 nM Labetalol, 100 nM Alprazolam and 2 μM Ketoprofen) at the same time. Vortex for 1 minute. Centrifuge the samples in plate at 3,220 g for 5 minutes at 4° C. Transfer 100 μL of the supernatant to a new plate. The supernatant may be diluted with 100 μL or 200 μL water according to the LC/MS signal response and peak shape. Mix well and analyze samples using LC/MS/MS.

[2] = Log D determination (1-octanol/buffer); format: physicochemical
Description: Prepare the stock solutions of test compounds and control compound progesterone in DMSO at the concentration of 30 mM. If test compound could not be dissolved completely, make a 10 mM stock solution with DMSO.
Place 5 μL of stock solution (30 mM) or 15 μL of stock solution (10 mM) of each sample in order into their proper 96-well rack. […] Add one stir stick to each vial and seal using a molded PTFE/Silicone plug. […] After completion of incubation, remove the stir sticks using a big magnet. Then centrifuge the samples at 25° C. at 20,000 g for 20 minutes to separate the phases, and use pipette and syringe to remove the upper (1-octanol) and lower (buffer) phases to the empty tubes, respectively. Take aliquots of 5 μL from upper phases followed by addition of 495 μL of methanol. Vortex for 1 minute, and then take aliquots of 50 μL from the diluent followed by addition of 450 μL of methanol. And take aliquots of 50 μL from lower phases followed by addition of 450 μL of methanol. A certain proportion of ultrapure water may be used according to the peak shape. The dilution factor may be changed according to the Log D value and the LC/MS signal response.

[3] = tested on: K-562; assay: NCI screening panel (SRB); format: cell-based; conditions: Homo sapiens, K562, K-562 (Leukemia), 48 h; for CC50: read-out: LC50 (the source's name)
[4] = tested on: SR; assay: NCI screening panel (SRB); format: cell-based; conditions: Homo sapiens, SR (Leukemia), 48 h; for CC50: read-out: LC50 (the source's name)
[5] = tested on: HOP-92; assay: NCI screening panel (SRB); format: cell-based; conditions: Homo sapiens, HOP-92 (NSCLC), 48 h; for CC50: read-out: LC50 (the source's name)
[6] = tested on: NCI-H23; assay: NCI screening panel (SRB); format: cell-based; conditions: Homo sapiens, NCI-H23 (NSCLC), 48 h; for CC50: read-out: LC50 (the source's name)
[7] = tested on: SF-268; assay: NCI screening panel (SRB); format: cell-based; conditions: Homo sapiens, SF-268 (CNS), 48 h; for CC50: read-out: LC50 (the source's name)
[8] = tested on: MALME3-M; assay: NCI screening panel (SRB); format: cell-based; conditions: Homo sapiens, Malme-3M, MALME3-M (Melanoma), 48 h; for CC50: read-out: LC50 (the source's name)
[9] = tested on: RXF393; assay: NCI screening panel (SRB); format: cell-based; conditions: Homo sapiens, RXF 393, RXF393 (Renal), 48 h; for CC50: read-out: LC50 (the source's name)
[10] = tested on: HS578T; assay: NCI screening panel (SRB); format: cell-based; conditions: Homo sapiens, Hs-578T, HS578T (Breast), 48 h; for CC50: read-out: LC50 (the source's name)
[11] = tested on: T-47D; assay: NCI screening panel (SRB); format: cell-based; conditions: Homo sapiens, T47D, T-47D (Breast), 48 h; for CC50: read-out: LC50 (the source's name)
[12] = tested on: NCI-H322M; assay: cells; conditions: Homo sapiens, 48 h; for CC50: read-out: LC50
[13] = tested on: M14; assay: cells; conditions: Homo sapiens, M14, 48 h; for CC50: read-out: LC50
[14] = tested on: OVCAR-3; assay: NCI screening panel (SRB); conditions: Homo sapiens, OVCAR-3, 48 h; for CC50: read-out: LC50
[15] = tested on: MDA-MB-468; assay: NCI screening panel (SRB); conditions: Homo sapiens, MDA-MB-468, 48 h; for CC50: read-out: LC50
[16] = biological target: EGFR (L858R, T790M) (Homo sapiens, UniProt P00533, L858R/T790M); assay: Kinase assays, selectivity panel (qPCR); conditions: read-out: % Control @ 300 nM
Sequence of EGFR (L858R, T790M) (P00533 25-1210 T790M/L858R): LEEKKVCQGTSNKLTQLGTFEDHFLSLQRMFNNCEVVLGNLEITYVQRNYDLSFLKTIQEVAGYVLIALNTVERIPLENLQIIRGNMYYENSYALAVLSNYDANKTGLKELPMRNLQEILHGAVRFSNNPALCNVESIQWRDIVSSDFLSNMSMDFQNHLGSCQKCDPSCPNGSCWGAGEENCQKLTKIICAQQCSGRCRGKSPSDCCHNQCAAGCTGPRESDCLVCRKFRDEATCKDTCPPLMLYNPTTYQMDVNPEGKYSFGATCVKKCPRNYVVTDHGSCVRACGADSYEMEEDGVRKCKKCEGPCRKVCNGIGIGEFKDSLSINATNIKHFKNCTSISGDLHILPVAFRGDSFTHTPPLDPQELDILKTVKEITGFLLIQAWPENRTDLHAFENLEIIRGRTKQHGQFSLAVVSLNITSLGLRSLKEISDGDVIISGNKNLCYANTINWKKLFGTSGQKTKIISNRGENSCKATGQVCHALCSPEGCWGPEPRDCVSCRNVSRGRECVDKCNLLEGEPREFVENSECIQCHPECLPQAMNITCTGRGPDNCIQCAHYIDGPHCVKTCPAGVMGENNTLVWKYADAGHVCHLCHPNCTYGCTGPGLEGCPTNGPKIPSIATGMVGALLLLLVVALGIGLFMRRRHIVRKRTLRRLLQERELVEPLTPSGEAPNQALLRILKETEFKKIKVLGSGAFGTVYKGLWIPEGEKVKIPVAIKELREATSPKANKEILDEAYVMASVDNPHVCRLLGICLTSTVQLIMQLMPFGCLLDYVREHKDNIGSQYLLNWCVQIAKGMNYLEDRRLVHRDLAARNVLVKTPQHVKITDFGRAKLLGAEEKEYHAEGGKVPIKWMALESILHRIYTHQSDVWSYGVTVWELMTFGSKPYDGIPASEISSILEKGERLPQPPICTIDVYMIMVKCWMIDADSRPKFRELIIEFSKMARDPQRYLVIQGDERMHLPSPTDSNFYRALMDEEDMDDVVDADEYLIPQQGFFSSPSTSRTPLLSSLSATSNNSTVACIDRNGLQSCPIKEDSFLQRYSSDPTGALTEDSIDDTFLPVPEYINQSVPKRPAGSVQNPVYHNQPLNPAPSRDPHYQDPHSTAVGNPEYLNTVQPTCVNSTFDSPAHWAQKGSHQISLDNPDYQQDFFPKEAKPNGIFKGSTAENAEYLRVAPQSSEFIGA

[17] = biological target: ERBB2 (Homo sapiens, UniProt P04626); assay: Kinase assays, selectivity panel (qPCR); conditions: read-out: % Control @ 300 nM
Sequence of ERBB2 (P04626 23-1255): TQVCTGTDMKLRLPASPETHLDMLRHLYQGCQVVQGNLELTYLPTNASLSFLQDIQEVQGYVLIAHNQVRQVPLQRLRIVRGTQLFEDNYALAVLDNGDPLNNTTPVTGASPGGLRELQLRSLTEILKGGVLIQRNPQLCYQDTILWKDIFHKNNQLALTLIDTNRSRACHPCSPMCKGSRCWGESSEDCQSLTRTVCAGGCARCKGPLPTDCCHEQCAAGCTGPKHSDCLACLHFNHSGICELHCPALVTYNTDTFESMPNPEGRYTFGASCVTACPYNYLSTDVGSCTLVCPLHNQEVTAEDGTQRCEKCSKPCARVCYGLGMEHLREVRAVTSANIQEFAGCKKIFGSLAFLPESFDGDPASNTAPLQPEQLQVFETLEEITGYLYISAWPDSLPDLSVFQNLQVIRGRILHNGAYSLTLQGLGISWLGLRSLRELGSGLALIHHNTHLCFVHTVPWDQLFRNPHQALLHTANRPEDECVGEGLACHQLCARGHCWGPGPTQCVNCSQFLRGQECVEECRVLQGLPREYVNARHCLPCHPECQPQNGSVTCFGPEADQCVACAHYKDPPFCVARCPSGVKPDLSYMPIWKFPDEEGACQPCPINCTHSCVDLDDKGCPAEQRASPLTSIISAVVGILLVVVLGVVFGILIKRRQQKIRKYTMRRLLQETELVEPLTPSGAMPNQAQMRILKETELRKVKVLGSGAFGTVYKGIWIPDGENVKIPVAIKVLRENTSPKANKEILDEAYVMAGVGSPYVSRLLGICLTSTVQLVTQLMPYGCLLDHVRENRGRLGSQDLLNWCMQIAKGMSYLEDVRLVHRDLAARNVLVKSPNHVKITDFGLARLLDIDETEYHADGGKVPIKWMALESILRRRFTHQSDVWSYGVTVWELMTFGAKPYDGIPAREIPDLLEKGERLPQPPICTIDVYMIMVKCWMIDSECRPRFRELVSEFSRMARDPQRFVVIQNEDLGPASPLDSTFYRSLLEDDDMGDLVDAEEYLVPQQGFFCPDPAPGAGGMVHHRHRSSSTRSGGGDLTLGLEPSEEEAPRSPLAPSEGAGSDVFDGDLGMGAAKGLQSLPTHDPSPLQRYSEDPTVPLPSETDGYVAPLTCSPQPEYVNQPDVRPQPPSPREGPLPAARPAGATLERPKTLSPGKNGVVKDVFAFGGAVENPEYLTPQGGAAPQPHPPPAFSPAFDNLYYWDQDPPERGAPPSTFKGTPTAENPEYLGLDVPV

Structure (SMILES)	Remaining Percentage (%) in PBS at pH 7.4 ([1]; 120 min) [%]	Remaining Percentage (%) in PBS at pH 7.4 ([1]; 240 min) [%]	logD ([2]; pH 2.0)	logD ([2]; pH 7.4)	GI50 [3] [µM]	CC50 [3] [µM]	GI50 [4] [µM]	CC50 [4] [µM]	GI50 [5] [µM]	CC50 [5] [µM]	GI50 [6] [µM]	CC50 [6] [µM]	GI50 [7] [µM]	CC50 [7] [µM]	GI50 [8] [µM]	CC50 [8] [µM]	GI50 [9] [µM]	CC50 [9] [µM]	GI50 [10] [µM]	CC50 [10] [µM]	further results
CN(C)C/C=C/C(=O)Nc1cc2c(Nc3cccc(Cl)c3F)ncnc2cc1OCCOC(F)F.O=C(O)/C=C\C(=O)O [Example I-5-MA, (E)-N-[4-(3-chloro-2-fluoro-anilino)-7-[2-(difluoromethoxy)ethoxy]quinazolin-6-yl]-4-(dimethylamino)but-2-enamide dimaleic acid salt]	94.70	91.17	-2.17	3.2	–	–	–	–	–	–	–	–	–	–	–	–	–	–	–	–	–
CN(C)C/C=C/C(=O)Nc1cc2c(Nc3ccc(F)c(Cl)c3F)ncnc2cc1OCCOC(F)F.O=C(O)/C=C\C(=O)O.O=C(O)/C=C\C(=O)O [Example I-9-MA, (E)-N-[4-(3-chloro-2,4-difluoro-anilino)-7-[2-(difluoromethoxy)ethoxy]quinazolin-6-yl]-4-(dimethylamino)but-2-enamide di-maleic acid salt]	–	–	–	–	0.459	61.9	0.439	59.2	0.185	31.2	1.38	15.4	0.747	27.3	1.42	6.97	0.351	15.1	1.24	> 100	GI50 [11]: < 0.01 µM; CC50 [11]: 88.1 µM; GI50 [12]: < 0.01 µM; CC50 [12]: 28.2 µM; GI50 [13]: 1.44 µM; CC50 [13]: 11 µM; GI50 [14]: 0.0811 µM; CC50 [14]: 7.44 µM; GI50 [15]: < 0.01 µM; CC50 [15]: 0.701 µM; remaining activity at 0.3 µM [16]: 3.5%; remaining activity at 0.3 µM [17]: 0%
O=C(/C=C/CN1CCCCC1)Nc1cc2c(Nc3ccc(F)c(Cl)c3F)ncnc2cc1OCCOC(F)F.O=C(O)/C=C\C(=O)O.O=C(O)/C=C\C(=O)O [Example I-10-MA, (E)-N-[4-(3-chloro-2,4-difluoro-anilino)-7-[2-(difluoromethoxy)ethoxy]quinazolin-6-yl]-4-(1-piperidyl)but-2-enamide di-maleic acid salt]	–	–	–	–	1.03	> 100	0.816	> 100	0.151	21.1	2.09	> 100	1.25	41.7	1.45	7.44	0.959	33.3	1.41	> 100	GI50 [11]: 0.0814 µM; CC50 [11]: > 100 µM; GI50 [12]: < 0.01 µM; CC50 [12]: 30.3 µM; GI50 [13]: 1.82 µM; CC50 [13]: > 100 µM; GI50 [14]: 0.39 µM; CC50 [14]: 16.8 µM; GI50 [15]: < 0.01 µM; CC50 [15]: 6.93 µM; remaining activity at 0.3 µM [16]: 2.4%; remaining activity at 0.3 µM [17]: 0.05%
CN(C)C/C=C/C(=O)Nc1cc2c(Nc3ccc(F)c(Cl)c3)ncnc2cc1O[C@H]1CCOC1 [Afatinib, reference compound]	101.12	105.37	-2.46	3.18	–	–	–	–	–	–	–	–	–	–	–	–	–	–	–	–	–
